Assay results reported in ChEMBL document CHEMBL5260850, “The exploration of aza-quinolines as hematopoietic prostaglandin D synthase (H-PGDS) inhibitors with low brain exposure” (Bioorg Med Chem, 2020).
Active and inactive are the calls of the source. No cut-off for these calls is given here.

Assays:
[1] = Half life in mouse liver microsomes pretreated for 5 mins followed by incubation with NADP for 30 secs and measured upto 45 mins by LC-MS/MS analysis; assay type: ADME, Microsome; conditions: time 3030 sec
[2] = Clearance in mouse at 1 mg/kg, iv; assay type: ADME, organism-based; conditions: in vivo
[3] = Oral bioavailability in mouse at 3 mg/kg; assay type: ADME, organism-based; conditions: in vivo
[4] = Clearance in rat at 0.4 mg/kg, iv; assay type: ADME, organism-based; conditions: in vivo
[5] = Oral bioavailability in rat at 2.4 mg/kg; assay type: ADME, organism-based; conditions: in vivo
[6] = Clearance in dog at 0.5 mg/kg, iv; assay type: ADME, organism-based, Canis lupus familiaris; conditions: in vivo
[7] = Volume of distribution at steady state in dog at 0.5 mg/kg, iv; assay type: ADME, organism-based, Canis lupus familiaris; conditions: in vivo, read-out: Vdss
[8] = target: Hematopoietic prostaglandin D synthase (Homo sapiens, UniProt O60760); test: Binding affinity to human H-PGDS expressed in Escherichia coli BL21 DE3 cells assessed as equilibrium dissociation constant by measuring changes in intrinsic tryptophan fluorescence in presence of glutathione by fluorescence based analysis
[9] = target: Prostaglandin-H2 D-isomerase (Homo sapiens, UniProt P41222); test: Inhibition of L-PGDS (unknown origin)
[10] = Inhibition of m-PGES (unknown origin); parameters: species or system Homo sapiens
[11] = target: Sodium channel protein type 5 subunit alpha (Homo sapiens, UniProt Q14524); test: Inhibition of Nav1.5 channel (unknown origin) upto 10000 nM; conditions: 10 µM
[12] = target: Voltage-gated inwardly rectifying potassium channel KCNH2 (Homo sapiens, UniProt Q12809); test: Inhibition of hERG
Mus musculus [13] = test: Anti-inflammatory activity against C57BL6/N mouse assessed as reduction in LPS-induced PGD2 level in plasma administered orally with compound and 1 hr later treated with LPS and measured after 30 mins by LC-MS/MS analysis; assay type: functional; conditions: route po, time 1.5 hrs
[14] = AUC (0 to last) in eccentric contraction-induced muscle injury C57BL/6N mouse model administered orally for 10 mins prior to unilateral eccentric contraction and QD for 16 days thereafter; assay type: ADME; parameters: time 16 day, route po; conditions: in vivo, po
[15] = Cmax in eccentric contraction-induced muscle injury C57BL/6N mouse model administered orally for 10 mins prior to unilateral eccentric contraction and QD for 16 days thereafter; assay type: ADME; parameters: time 16 day, route po; conditions: in vivo, po
[16] = Free Cmax in eccentric contraction-induced muscle injury C57BL/6N mouse model administered orally 10 mins prior to unilateral eccentric contraction and QD for 16 days thereafter; assay type: ADME; conditions: in vivo, po, 384 h, time 16 day
Mus musculus [17] = test: Anti-inflammatory activity against mdx mouse assessed as inhibition of muscle function loss by measuring functional recovery of injured limb muscles at 0.1 to 10 mg/kg, po administered 10 mins prior to unilateral eccentric contraction and QD for 43 days thereafter; parameters: scale not given: the % may be the effect or the level left; conditions: dose 0.1-10 mg/kg, time 43 day
Mus musculus [18] = test: Anti-inflammatory activity against mdx mouse assessed as inhibition of muscle function loss by measuring functional recovery of injured limb muscles administered orally 10 mins prior to unilateral eccentric contraction and QD for 43 days thereafter; conditions: 1032 h, route po, time 43 day
[19] = Toxicity in Wistar Han rat assessed as morphological changes in thymus at 30 mg/kg/day, po administered QD for 7 days by microscopic analysis; assay type: organism-based; conditions: in vivo, 168 h, time 7 day
[20] = Toxicity in Wistar Han rat assessed as animal death at 100 mg/kg/day, po administered QD for 7 days; assay type: organism-based; conditions: in vivo, 168 h, time 7 day
[21] = Toxicity in Wistar Han rat assessed as proximal tubular vacuolation and hyaline cast formation in kidney at 100 mg/kg/day, po administered QD for 7 days by microscopic analysis; assay type: organism-based; conditions: in vivo, 168 h, time 7 day
[22] = Toxicity in Wistar Han rat assessed as cortical hypertrophy in adrenal gland at 100 mg/kg/day, po administered QD for 7 days by microscopic analysis; assay type: organism-based; conditions: in vivo, 168 h, time 7 day
[23] = Toxicity in Wistar Han rat assessed as increased lymphocytolysis in thymus at 100 mg/kg/day, po administered QD for 7 days by microscopic analysis; assay type: organism-based; conditions: in vivo, 168 h, time 7 day
[24] = AUC in Wistar Han rat at 10 mg/kg/day, po QD for 7 days; assay type: ADME, organism-based; parameters: dose 10 mg/kg/day, time 7 day, route po; conditions: in vivo
[25] = AUC in Wistar Han rat at 30 mg/kg/day, po QD for 7 days; assay type: ADME, organism-based; parameters: dose 30 mg/kg/day, time 7 day, route po; conditions: in vivo
[26] = AUC in Wistar Han rat at 100 mg/kg/day, po QD for 7 days; assay type: ADME, organism-based; parameters: time 7 day, dose 100 mg/kg/day, route po; conditions: in vivo
[27] = Cmax in Wistar Han rat at 10 mg/kg/day, po QD for 7 days; assay type: ADME, organism-based; parameters: time 7 day, dose 10 mg/kg/day, route po; conditions: in vivo
[28] = Cmax in Wistar Han rat at 100 mg/kg/day, po QD for 7 days; assay type: ADME, organism-based; parameters: dose 100 mg/kg/day, time 7 day, route po; conditions: in vivo
[29] = Toxicity in dog assessed as deterioration in clinical condition at 75 mg/kg/day, po QD for 4 days; assay type: organism-based, Canis lupus familiaris; conditions: in vivo, 96 h, time 4 day
[30] = Toxicity in dog assessed as body weight loss at 75 mg/kg/day, po QD for 4 days; assay type: organism-based, Canis lupus familiaris; conditions: in vivo, 96 h, time 4 day
[31] = Toxicity in dog assessed as decreased cortical lymphoid cellularity in thymus at 75 mg/kg/day, po QD for 4 days by microscopic analysis; assay type: organism-based, Canis lupus familiaris; conditions: in vivo, 96 h, time 4 day
[32] = Toxicity in dog assessed as clinical pathological changes by measuring increase in hepatobiliary parameters at 75 mg/kg/day, po QD for 4 days; assay type: organism-based, Canis lupus familiaris; conditions: in vivo, 96 h, time 4 day
[33] = Toxicity in dog assessed as clinical pathological changes by measuring increase in cardiac troponin 1 level at 75 mg/kg/day, po QD for 4 days; assay type: organism-based, Canis lupus familiaris; conditions: in vivo, 96 h, time 4 day
[34] = Cmax in dog at 30 mg/kg/day, po QD for 4 days; assay type: ADME, organism-based, Canis lupus familiaris; parameters: time 4 day, dose 30 mg/kg/day, route po; conditions: in vivo
[35] = target: 5-hydroxytryptamine receptor 1B (Homo sapiens) (UniProt P28222); conditions: dose <= 10000.0 nM
Description: Inhibition of 5-HT1B receptor (unknown origin) upto 10000 nM

[36] = target: 5-hydroxytryptamine receptor 2B (Homo sapiens) (UniProt P41595); conditions: dose <= 10000.0 nM
Description: Inhibition of 5-HT2B receptor (unknown origin) upto 10000 nM

[37] = target: Alpha-2C adrenergic receptor (Homo sapiens) (UniProt P18825); conditions: dose <= 10000.0 nM
Description: Inhibition of alpha2C adrenergic receptor (unknown origin) upto 10000 nM

[38] = target: Kappa-type opioid receptor (Homo sapiens) (UniProt P41145); conditions: dose <= 10000.0 nM
Description: Inhibition of kappa opioid receptor (unknown origin) upto 10000 nM

[39] = target: D(1A) dopamine receptor (Homo sapiens) (UniProt P21728); conditions: dose <= 10000.0 nM
Description: Inhibition of dopamine D1 receptor (unknown origin) upto 10000 nM

[40] = target: Muscarinic acetylcholine receptor M1 (Homo sapiens) (UniProt P11229); conditions: dose <= 10000.0 nM
Description: Inhibition of muscarinic M1 receptor (unknown origin) upto 10000 nM

[41] = target: Substance-P receptor (Homo sapiens) (UniProt P25103); conditions: dose <= 10000.0 nM
Description: Inhibition of tachykinin NK1 receptor (unknown origin) upto 10000 nM

[42] = target: Potassium voltage-gated channel subfamily A member 5 (Homo sapiens) (UniProt P22460); conditions: dose <= 10000.0 nM
Description: Inhibition of Kv1.5 channel (unknown origin) upto 10000 nM

[43] = target: Acetylcholinesterase (Homo sapiens) (UniProt P22303); conditions: dose <= 10000.0 nM
Description: Inhibition of AChE (unknown origin) upto 10000 nM

[44] = target: Aurora kinase B (Homo sapiens) (UniProt Q96GD4); conditions: dose <= 10000.0 nM
Description: Inhibition of Aurora B kinase (unknown origin) upto 10000 nM

[45] = target: Phosphatidylinositol 4,5-bisphosphate 3-kinase catalytic subunit gamma isoform (Homo sapiens) (UniProt P48736); conditions: dose <= 10000.0 nM
Chain of Phosphatidylinositol 4,5-bisphosphate 3-kinase catalytic subunit gamma isoform (Homo sapiens) (P48736 whole entry, looked up, canonical isoform): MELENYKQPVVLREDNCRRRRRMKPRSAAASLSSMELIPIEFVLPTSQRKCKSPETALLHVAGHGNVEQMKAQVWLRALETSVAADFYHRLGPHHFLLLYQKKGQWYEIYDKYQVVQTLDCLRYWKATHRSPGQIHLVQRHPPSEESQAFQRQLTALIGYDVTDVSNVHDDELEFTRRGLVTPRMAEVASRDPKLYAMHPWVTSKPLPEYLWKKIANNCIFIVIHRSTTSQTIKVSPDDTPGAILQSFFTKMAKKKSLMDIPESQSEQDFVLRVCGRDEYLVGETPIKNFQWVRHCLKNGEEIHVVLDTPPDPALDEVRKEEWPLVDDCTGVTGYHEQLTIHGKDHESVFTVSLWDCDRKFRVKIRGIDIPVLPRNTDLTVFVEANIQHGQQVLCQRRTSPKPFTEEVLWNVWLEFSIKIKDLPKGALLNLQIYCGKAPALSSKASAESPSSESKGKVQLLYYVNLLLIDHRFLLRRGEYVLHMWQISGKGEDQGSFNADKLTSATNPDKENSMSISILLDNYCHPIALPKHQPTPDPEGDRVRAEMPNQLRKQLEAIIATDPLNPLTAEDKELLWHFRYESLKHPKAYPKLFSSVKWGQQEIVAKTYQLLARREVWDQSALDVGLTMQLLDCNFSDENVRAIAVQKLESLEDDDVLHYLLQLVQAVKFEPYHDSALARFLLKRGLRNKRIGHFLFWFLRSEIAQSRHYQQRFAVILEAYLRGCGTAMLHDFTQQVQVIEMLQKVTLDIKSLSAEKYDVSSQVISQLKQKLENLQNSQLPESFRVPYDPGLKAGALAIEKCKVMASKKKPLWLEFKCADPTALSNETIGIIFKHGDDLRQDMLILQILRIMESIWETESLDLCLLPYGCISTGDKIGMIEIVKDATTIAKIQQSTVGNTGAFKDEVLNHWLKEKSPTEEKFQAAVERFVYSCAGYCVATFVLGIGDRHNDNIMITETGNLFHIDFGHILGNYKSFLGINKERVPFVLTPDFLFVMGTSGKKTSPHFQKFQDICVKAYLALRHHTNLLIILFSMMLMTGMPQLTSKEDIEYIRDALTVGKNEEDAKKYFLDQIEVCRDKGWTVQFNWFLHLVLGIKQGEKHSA
Description: Inhibition of PI3K-gamma (unknown origin) upto 10000 nM

Chain of Substance-P receptor (Homo sapiens) (P25103 whole entry): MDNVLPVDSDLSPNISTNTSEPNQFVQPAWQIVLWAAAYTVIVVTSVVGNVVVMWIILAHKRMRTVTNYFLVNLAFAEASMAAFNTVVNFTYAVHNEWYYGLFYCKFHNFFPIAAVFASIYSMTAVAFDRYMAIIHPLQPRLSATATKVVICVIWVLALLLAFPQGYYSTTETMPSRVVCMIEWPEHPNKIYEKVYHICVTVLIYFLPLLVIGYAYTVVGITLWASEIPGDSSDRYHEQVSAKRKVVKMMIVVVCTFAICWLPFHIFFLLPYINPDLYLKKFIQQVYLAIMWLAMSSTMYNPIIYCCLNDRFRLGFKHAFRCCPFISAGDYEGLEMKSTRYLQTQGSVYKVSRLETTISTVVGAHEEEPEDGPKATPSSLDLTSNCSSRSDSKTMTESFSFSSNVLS
Chain of Aurora kinase B (Homo sapiens) (Q96GD4 whole entry, canonical isoform): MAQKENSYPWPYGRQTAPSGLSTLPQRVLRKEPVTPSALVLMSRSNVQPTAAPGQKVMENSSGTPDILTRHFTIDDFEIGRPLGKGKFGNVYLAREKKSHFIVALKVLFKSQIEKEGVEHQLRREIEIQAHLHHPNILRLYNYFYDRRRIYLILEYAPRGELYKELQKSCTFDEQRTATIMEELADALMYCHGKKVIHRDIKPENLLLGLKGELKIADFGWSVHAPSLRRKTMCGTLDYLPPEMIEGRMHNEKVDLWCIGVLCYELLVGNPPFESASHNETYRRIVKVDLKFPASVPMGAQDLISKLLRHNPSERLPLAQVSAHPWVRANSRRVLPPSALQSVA
Chain of Sodium channel protein type 5 subunit alpha (Q14524 whole entry): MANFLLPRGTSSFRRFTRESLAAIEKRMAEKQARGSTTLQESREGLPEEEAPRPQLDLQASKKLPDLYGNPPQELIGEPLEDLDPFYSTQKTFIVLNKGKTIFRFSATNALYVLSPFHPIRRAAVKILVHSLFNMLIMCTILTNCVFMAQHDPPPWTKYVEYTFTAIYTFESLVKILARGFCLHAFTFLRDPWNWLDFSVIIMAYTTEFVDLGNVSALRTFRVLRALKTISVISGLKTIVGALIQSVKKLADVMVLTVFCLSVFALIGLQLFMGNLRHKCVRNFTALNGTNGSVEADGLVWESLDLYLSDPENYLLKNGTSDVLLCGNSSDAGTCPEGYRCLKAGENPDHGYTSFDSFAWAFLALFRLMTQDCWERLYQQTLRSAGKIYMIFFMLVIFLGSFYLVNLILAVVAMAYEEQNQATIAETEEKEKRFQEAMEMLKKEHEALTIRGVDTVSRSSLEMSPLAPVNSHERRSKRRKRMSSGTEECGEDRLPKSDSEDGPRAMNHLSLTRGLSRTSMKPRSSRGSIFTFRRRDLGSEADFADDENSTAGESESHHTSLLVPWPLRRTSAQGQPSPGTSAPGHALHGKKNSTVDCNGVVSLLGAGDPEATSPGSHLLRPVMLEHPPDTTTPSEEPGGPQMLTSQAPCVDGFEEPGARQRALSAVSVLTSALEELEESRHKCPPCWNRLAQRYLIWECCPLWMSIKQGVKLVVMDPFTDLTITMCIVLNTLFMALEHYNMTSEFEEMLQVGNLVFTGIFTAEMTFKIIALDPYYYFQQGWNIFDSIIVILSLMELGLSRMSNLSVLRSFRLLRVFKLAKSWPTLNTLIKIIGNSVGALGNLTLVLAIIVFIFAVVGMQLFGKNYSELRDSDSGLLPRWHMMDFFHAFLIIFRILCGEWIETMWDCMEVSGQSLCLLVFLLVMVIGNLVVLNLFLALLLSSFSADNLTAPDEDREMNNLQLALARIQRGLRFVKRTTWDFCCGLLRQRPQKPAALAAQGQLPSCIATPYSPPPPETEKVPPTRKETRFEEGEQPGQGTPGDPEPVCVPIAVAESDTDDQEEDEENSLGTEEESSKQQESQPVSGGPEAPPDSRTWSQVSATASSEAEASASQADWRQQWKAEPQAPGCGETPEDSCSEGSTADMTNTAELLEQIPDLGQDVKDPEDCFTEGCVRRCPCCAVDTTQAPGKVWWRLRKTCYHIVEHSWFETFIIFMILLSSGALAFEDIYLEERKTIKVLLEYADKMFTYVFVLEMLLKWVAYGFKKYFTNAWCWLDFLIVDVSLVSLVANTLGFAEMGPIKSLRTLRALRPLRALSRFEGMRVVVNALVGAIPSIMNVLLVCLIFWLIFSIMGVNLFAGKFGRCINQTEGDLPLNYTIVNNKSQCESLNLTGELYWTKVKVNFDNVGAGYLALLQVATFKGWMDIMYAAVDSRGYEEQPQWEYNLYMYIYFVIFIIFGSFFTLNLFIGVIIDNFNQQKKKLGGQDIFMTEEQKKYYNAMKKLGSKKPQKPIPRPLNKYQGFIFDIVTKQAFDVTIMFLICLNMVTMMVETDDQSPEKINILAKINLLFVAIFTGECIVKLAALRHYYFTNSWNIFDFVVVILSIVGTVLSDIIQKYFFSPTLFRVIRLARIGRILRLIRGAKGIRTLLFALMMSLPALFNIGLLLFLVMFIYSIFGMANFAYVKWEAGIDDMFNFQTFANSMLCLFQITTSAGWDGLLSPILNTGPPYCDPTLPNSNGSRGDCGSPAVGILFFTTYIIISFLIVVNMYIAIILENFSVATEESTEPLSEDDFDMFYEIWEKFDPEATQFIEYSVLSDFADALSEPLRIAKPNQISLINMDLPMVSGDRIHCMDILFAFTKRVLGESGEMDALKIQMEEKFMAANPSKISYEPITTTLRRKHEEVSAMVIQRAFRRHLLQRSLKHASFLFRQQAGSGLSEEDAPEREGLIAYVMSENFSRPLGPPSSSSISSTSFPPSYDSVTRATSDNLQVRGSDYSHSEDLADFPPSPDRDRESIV
Chain of Hematopoietic prostaglandin D synthase (O60760 whole entry): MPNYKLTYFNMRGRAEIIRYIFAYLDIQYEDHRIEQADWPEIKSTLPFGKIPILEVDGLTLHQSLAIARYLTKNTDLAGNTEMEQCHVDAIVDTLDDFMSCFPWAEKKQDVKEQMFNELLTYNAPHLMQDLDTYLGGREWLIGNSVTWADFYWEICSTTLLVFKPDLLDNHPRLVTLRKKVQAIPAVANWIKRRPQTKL
Chain of D(1A) dopamine receptor (Homo sapiens) (P21728 whole entry): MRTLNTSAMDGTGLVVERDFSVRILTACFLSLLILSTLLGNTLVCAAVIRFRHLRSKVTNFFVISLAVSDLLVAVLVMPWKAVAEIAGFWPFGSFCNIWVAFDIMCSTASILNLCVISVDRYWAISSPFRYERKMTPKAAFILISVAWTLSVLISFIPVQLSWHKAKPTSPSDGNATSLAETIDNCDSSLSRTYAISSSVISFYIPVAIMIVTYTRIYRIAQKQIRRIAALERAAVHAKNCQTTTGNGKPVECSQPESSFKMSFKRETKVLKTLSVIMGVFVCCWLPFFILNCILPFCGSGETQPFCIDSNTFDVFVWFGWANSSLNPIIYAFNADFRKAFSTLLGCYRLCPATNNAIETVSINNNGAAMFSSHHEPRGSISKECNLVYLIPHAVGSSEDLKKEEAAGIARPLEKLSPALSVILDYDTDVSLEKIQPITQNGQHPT
Chain of Muscarinic acetylcholine receptor M1 (Homo sapiens) (P11229 whole entry): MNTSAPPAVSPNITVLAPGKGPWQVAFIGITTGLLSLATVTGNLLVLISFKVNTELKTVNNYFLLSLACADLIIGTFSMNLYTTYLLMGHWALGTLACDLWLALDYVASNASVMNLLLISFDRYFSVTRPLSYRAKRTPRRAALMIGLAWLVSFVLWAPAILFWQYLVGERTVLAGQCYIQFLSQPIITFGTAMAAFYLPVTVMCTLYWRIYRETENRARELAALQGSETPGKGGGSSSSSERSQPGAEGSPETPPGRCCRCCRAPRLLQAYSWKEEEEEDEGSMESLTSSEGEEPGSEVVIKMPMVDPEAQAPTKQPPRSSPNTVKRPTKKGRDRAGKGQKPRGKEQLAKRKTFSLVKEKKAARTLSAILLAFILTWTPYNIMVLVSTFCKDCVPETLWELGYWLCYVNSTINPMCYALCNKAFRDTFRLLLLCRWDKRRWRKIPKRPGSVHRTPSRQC

`CC(C)(O)[C@H]1CC[C@H](NC(=O)c2cnc3nc(C4CC4)ccc3c2)CC1` showed a half-life [1] greater than 3 h, a clearance [2] of 9 mL/min/kg and a bioavailability [3] of 71%. For the same compound, the clearance [4] was 4.5 mL/min/kg, the bioavailability [5] was 100% and the clearance [6] was 1.9 mL/min/kg. For the same compound, the Vd [7] was 1 L/kg, the Kd [8] was 0.00024 µM and the IC50 [9] was greater than 10 µM. The IC50 [10] was greater than 100 µM, the “inhibition (INH)” value [11] was “Not Active” and the IC50 [12] was greater than 80 µM. For the same compound, the ED50 (Mus musculus [13]) was 0.0031 mg/kg, the AUC(0-t) at 384 h [14] was 5.3 µg·h/mL and the Cmax [15] was 1700 ng/mL. For the same compound, the fCmax [16] was 370 ng/mL, the Activity (Mus musculus [17]) was 90% and the ED50 (Mus musculus [18]) was 1.1 mg/kg. The Activity [19] was “Non-Toxic”, the Activity [20] was “Toxic” and the Activity [21] was “Toxic”. The Activity [22] was “Toxic”, the Activity [23] was “Toxic” and the AUC at 168 h [24] was 120 µg·h/mL. It also gave an AUC at 168 h [25] of 410 µg·h/mL, an AUC at 168 h [26] of 820 µg·h/mL and a Cmax [27] of 8700 ng/mL. For the same compound, the Cmax [28] was 57000 ng/mL, the Activity [29] was “Toxic” and the Activity [30] was “Toxic”. For the same compound, the Activity [31] was “Toxic”, the Activity [32] was “Toxic” and the Activity [33] was “Toxic”. The Cmax [34] was 34000 ng/mL, the inhibition [35] was “inactive” and the inhibition [36] was “inactive”. For the same compound, the inhibition [37] was “inactive”, the inhibition [38] was “inactive” and the inhibition [39] was “inactive”. For the same compound, the inhibition [40] was “inactive”, the inhibition [41] was “inactive” and the inhibition [42] was “inactive”. For the same compound, the inhibition [43] was “inactive”, the inhibition [44] was “inactive” and the inhibition [45] was “inactive”.
